How the values were obtained:
L02 = assay: Cytotoxicity against human L02 cells assessed as reduction in cell viability incubated for 72 hrs by MTT assay; assay type: cell-based; conditions: L02, 72 h
A549 = assay: Antiproliferative activity against human A549 cells assessed as inhibition of cell proliferation incubated for 72 hrs by MTT assay; assay type: functional, cell-based; conditions: A549, 72 h
[1] = Antiproliferative activity against […] B16 cells assessed as inhibition of cell proliferation incubated for 72 hrs by MTT assay; assay type: functional, cell-based; conditions: B16, 72 h
143B [2] = assay: Induction of cell cycle arrest in human 143B cells assessed as accumulation at G1 phase at 2.5 uM incubated for 48 hrs by propidium iodide staining based flow cytometry (reference value: 66.62 %); assay type: functional
143B [3] = assay: Induction of cell cycle arrest in human 143B cells assessed as accumulation at G2 phase at 2.5 uM incubated for 48 hrs by propidium iodide staining based flow cytometry (reference value: 1.35 %); assay type: functional
143B [4] = assay: Induction of cell cycle arrest in human 143B cells assessed as accumulation at S phase at 5 uM incubated for 48 hrs by propidium iodide staining based flow cytometry (reference value: 32.03 %); assay type: functional
143B [5] = assay: Induction of cell cycle arrest in human 143B cells assessed as accumulation at G2 phase at 5 uM incubated for 48 hrs by propidium iodide staining based flow cytometry (reference value: 1.35 %); assay type: functional
143B [6] = assay: Induction of cell cycle arrest in human 143B cells assessed as accumulation at G1 phase at 10 uM incubated for 48 hrs by propidium iodide staining based flow cytometry (reference value: 66.62 %); assay type: functional
143B [7] = assay: Induction of cell cycle arrest in human 143B cells assessed as accumulation at G2 phase at 10 uM incubated for 48 hrs by propidium iodide staining based flow cytometry (reference value: 1.35 %); assay type: functional
143B [8] = assay: Induction of apoptosis in human 143B cells assessed as apoptotic cells at 5 uM incubated for 24 hrs by Annexin V-FITC/PI double staining based flow cytometric analysis (reference value: 3.9%); assay type: functional
143B [9] = assay: Induction of apoptosis in human 143B cells assessed as apoptotic cells at 10 uM incubated for 24 hrs by Annexin V-FITC/PI double staining based flow cytometric analysis (reference value: 3.9%); assay type: functional
[10] = Volume of distribution in Sprague-Dawley rat at 80 mg/kg, po administered as single dose measured upto 48 hrs by LC-MS/MS analysis; conditions: in vivo
[11] = MRT (0 to t) in Sprague-Dawley rat at 80 mg/kg, po administered as single dose measured upto 48 hrs by LC-MS/MS analysis; conditions: in vivo
[12] = MRT (0 to infinity) in Sprague-Dawley rat at 80 mg/kg, po administered as single dose measured upto 48 hrs by LC-MS/MS analysis; conditions: in vivo
liver carboxylesterase = biological target: T1, liver carboxylesterase (Sus scrofa, UniProt Q29550); assay: Stability of the compound assessed as pig liver carboxylesterase-mediated compound hydrolysis at 10 mM measured after 24 hrs by HPLC analysis; assay type: ADME; conditions: read-out: Drug degradation
T1 sequence (Q29550 whole entry): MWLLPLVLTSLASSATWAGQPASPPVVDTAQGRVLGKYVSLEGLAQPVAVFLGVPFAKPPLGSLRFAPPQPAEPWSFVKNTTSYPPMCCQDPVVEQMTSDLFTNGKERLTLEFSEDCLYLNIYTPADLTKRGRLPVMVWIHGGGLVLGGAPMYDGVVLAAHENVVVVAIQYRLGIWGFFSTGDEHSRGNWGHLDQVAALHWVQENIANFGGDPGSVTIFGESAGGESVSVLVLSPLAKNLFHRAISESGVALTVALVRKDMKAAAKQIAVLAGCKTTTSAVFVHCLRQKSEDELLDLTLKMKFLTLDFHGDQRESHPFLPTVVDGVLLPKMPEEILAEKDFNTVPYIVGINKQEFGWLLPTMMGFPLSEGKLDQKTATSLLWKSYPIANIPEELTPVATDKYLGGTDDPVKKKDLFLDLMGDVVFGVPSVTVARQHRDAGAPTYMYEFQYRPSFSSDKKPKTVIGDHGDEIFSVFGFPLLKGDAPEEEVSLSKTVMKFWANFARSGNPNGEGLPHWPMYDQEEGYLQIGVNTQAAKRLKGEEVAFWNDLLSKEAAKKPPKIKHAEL

143B [13] = assay: Antitumor activity against human 143B cells xenografted in BALB/c nude mouse assessed as tumor growth inhibition at 20 mg/kg, po administered once daily for 28 consecutive days relative to control; assay type: functional; conditions: 672 h, time 28 day, read-out: TGI
[14] = Toxicity in BALB/c nude mouse xenografted with human 143B cells assessed as body weight loss at 5 mg/kg, po administered once daily for 28 consecutive days and measured every 3 days; assay type: organism-based; conditions: in vivo, 672 h, time 28 day
[15] = Toxicity in BALB/c nude mouse xenografted with human 143B cells assessed as heart edema at 5 to 20 mg/kg, po administered once daily for 28 consecutive days by hematoxylin-eosin staining based assay; assay type: organism-based; conditions: in vivo, 672 h, dose 5-20 mg/kg, time 28 day
[16] = Toxicity in BALB/c nude mouse xenografted with human 143B cells assessed as liver edema at 5 to 20 mg/kg, po administered once daily for 28 consecutive days by hematoxylin-eosin staining based assay; assay type: organism-based; conditions: in vivo, 672 h, dose 5-20 mg/kg, time 28 day
[17] = Toxicity in BALB/c nude mouse xenografted with human 143B cells assessed as lung edema at 5 to 20 mg/kg, po administered once daily for 28 consecutive days by hematoxylin-eosin staining based assay; assay type: organism-based; conditions: in vivo, 672 h, dose 5-20 mg/kg, time 28 day
[18] = Toxicity in BALB/c nude mouse xenografted with human 143B cells assessed as kidney edema at 5 to 20 mg/kg, po administered once daily for 28 consecutive days by hematoxylin-eosin staining based assay; assay type: organism-based; conditions: in vivo, 672 h, dose 5-20 mg/kg, time 28 day
[19] = Toxicity in BALB/c nude mouse xenografted with human 143B cells assessed as necrosis in heart at 5 to 20 mg/kg, po administered once daily for 28 consecutive days by hematoxylin-eosin staining based assay; assay type: organism-based; conditions: in vivo, 672 h, dose 5-20 mg/kg, time 28 day
[20] = Toxicity in BALB/c nude mouse xenografted with human 143B cells assessed as necrosis in spleen at 5 to 20 mg/kg, po administered once daily for 28 consecutive days by hematoxylin-eosin staining based assay; assay type: organism-based; conditions: in vivo, 672 h, dose 5-20 mg/kg, time 28 day
[21] = Toxicity in BALB/c nude mouse xenografted with human 143B cells assessed as necrosis in lung at 5 to 20 mg/kg, po administered once daily for 28 consecutive days by hematoxylin-eosin staining based assay; assay type: organism-based; conditions: in vivo, 672 h, dose 5-20 mg/kg, time 28 day
[22] = biological target: Glutathione S-transferase P (Homo sapiens, UniProt P09211); conditions: dose 0.1-5 µM
Sequence of Glutathione S-transferase P (P09211 2-210 limits assumed): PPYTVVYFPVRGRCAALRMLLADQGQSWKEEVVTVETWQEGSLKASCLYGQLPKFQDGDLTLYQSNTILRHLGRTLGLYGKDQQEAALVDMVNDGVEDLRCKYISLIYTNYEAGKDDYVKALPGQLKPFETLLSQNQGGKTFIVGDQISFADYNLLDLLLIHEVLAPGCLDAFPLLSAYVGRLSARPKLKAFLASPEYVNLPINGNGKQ

[23] = rat, in vivo, po, 80 mg/kg, 48 h
Description: Plasma clearance in Sprague-Dawley rat at 80 mg/kg, po administered as single dose measured upto 48 hrs by LC-MS/MS analysis

[24] = rat, in vivo, po, 80 mg/kg, 48 h; remark: listed apart in the source
Description: AUC (0 to infinity) in Sprague-Dawley rat at 80 mg/kg, po administered as single dose measured upto 48 hrs by LC-MS/MS analysis

in vivo [25] = conditions: Sprague-Dawley, rat, po, 80 mg/kg
Description: Tmax in Sprague-Dawley rat at 80 mg/kg, po administered as single dose measured upto 48 hrs by LC-MS/MS analysis

in vivo [26] = conditions: Sprague-Dawley, rat, po, 80 mg/kg; remark: listed apart in the source
Description: Cmax in Sprague-Dawley rat at 80 mg/kg, po administered as single dose measured upto 48 hrs by LC-MS/MS analysis

in vivo [27] = conditions: Sprague-Dawley, rat, po, 80 mg/kg; remark: listed apart in the source
Description: Terminal half life in Sprague-Dawley rat at 80 mg/kg, po administered as single dose measured upto 48 hrs by LC-MS/MS analysis

in vivo [28] = conditions: Sprague-Dawley, rat, po, 80 mg/kg; remark: listed apart in the source
Description: AUC (0 to t) in Sprague-Dawley rat at 80 mg/kg, po administered as single dose measured upto 48 hrs by LC-MS/MS analysis

IC50 (A549): 1.58 µM | Vd [10]: 7.62 L/kg | MRT last at 48 h [11]: 6.35 h | MRT inf at 48 h [12]: 6.54 h | metabolised at 24 h, 10000 µM (liver carboxylesterase): 45% | Kinact [22]: 0.17 min⁻¹ | CL [23]: 64.2 mL/min/kg | AUC [24]: 6514.48 ng·h/mL | Tmax at 48 h (in vivo [25]): 2.33 h | Cmax at 48 h (in vivo [26]): 1810 ng/mL | half-life at 48 h (in vivo [27]): 7.28 h | AUC(0-t) at 48 h (in vivo [28]): 6420 ng·h/mL
Compound: CN(C)CCCNC(=O)CCC(=O)OCCCCCCSc1ccc([N+](=O)[O-])c2nonc12
IC50 (L02): 4.23 µM | IC50 [1]: 0.95 µM | Activity (143B [2]): 49.79% | Activity (143B [3]): 9.46% | Activity (143B [4]): 34.94% | Activity (143B [5]): 15.24% | Activity (143B [6]): 48.67% | Activity (143B [7]): 21.01% | Activity (143B [8]): 74% | Activity (143B [9]): 84% | inhibition in vivo at 20 mg/kg (143B [13]): 74.5% | Activity [14]: Non-Toxic | Activity [15]: Non-Toxic | Activity [16]: Non-Toxic | Activity [17]: Non-Toxic | Activity [18]: Non-Toxic | Activity [19]: Non-Toxic | Activity [20]: Non-Toxic | Activity [21]: Non-Toxic
